We go through ten molecules from US12091425B2 (AMGEN INC., priority 2016, dated 2024).

Data set [1] addresses T1, Mcl-1/Bim interaction, recombinant human Mcl-1 (171-327) (Homo sapiens, UniProt Q07820).
T1 construct: made in house
The experiment in a line: Cell free Mcl-1: Bim Affinity Assay (Mcl-1 HTRF). The data set is classed as binding. An outline of the steps: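 TR-FRET competition assay with biotinylated human Bim peptide (residues 51-76); reaction plates incubated overnight before reading. IC50 values came from duplicate data fitted to a four-parameter sigmoidal competition curve.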

Read-outs that look alike come from different tables or passages of the source.

T1 sequence (Q07820 171-327): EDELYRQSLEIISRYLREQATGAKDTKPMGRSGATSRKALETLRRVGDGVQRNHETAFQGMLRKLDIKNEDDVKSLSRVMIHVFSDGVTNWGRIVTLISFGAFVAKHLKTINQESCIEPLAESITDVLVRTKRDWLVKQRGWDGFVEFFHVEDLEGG

For the setting “from C[C@@H](CS(N)(=O)=O)[C@@H](/C=C/[C@H](O)[C@@H]1CC[C@H]1CN1C[C@@]2(CCCc3cc(Cl)ccc32)COc2ccc(C(=O)O)cc21)CO[Si](c1ccccc1)(c1ccccc1)C(C)(C)C, amide bond, 16-membered ring, EDC/DMAP, DCM, 2.0 mM, 16.0 h, 3 steps”, `C[C@H]1CS(=O)(=O)NC(=O)c2ccc3c(c2)N(C[C@@H]2CC[C@H]2[C@@H](O)C=C[C@H]1CO[Si](c1ccccc1)(c1ccccc1)C(C)(C)C)C[C@@]1(CCCc2cc(Cl)ccc21)CO3` (single isomer, unassigned) returned a ring closure, isolated yield of 10.8%. Molecule `O=C1NS(=O)(=O)[C@H]2CCC[C@H](C=C[C@H](O)[C@@H]3CC[C@H]3CN3C[C@@]4(CCCc5cc(Cl)ccc54)COc4ccc1cc43)C2` (single isomer, unassigned) yielded a ring closure, isolated yield (from NS(=O)(=O)[C@H]1CCC[C@H](/C=C/[C@H](O)[C@@H]2CC[C@H]2CN2C[C@@]3(CCCc4cc(Cl)ccc43)COc3ccc(C(=O)O)cc32)C1, amide bond, 16-membered ring, EDC/DMAP, DCM, 2.0 mM, 64.0 h) of 20%. The molecule `O=C1NS(=O)(=O)CC/C=C/[C@@H](O)[C@@H]2CC[C@H]2CN2C[C@@]3(CCCc4cc(Cl)ccc43)COc3ccc1cc32` [Example 221, (1S,3′R,6′R,7′R,8′E)-6-chloro-7′-hydroxy-3,4-dihydro-2H,14′H-spiro[naphthalene-1,21′-[19]oxa[12]thia[1,13]diazatetracyclo[13.7.2.0^3,6.0^18,23]tetracosa [8,15,17,23]tetraen]-14′-one 12′,12′-dioxide] yielded a ring closure, isolated yield (from C=CCCS(=O)(=O)NC(=O)c1ccc2c(c1)N(C[C@@H]1CC[C@H]1[C@H](O)/C=C/CCC)C[C@@]1(CCCc3cc(Cl)ccc31)CO2, rcm bond, 15-membered ring, Hoveyda-Grubbs II (portionwise), AcOH, 5.2 mM) of 48%. The IC50 in data set [1] (TR-FRET, 0.1 nM Mcl-1 (171-327), 0.05 nM biotin-Bim (51-76)) was determined as 10.8 nM.

Take `CC[C@@H]1CC/C=C/C[C@H](O)[C@@H]2CC[C@H]2CN2C[C@@]3(CCCc4cc(Cl)ccc43)COc3ccc(cc32)C(=O)NS1(=O)=O` [Example 553, (1S,3′R,6′R,7′S,9′E,13′R)-6-chloro-13′-ethyl-7′-hydroxy-3,4-dihydro-2H,16′H-spiro[naphthalene-1,23′-[21]oxa[14]thia[1,15]diazatetracyclo[15.7.2.0^3,6.0^20,25]hexacosa[9,17,19,25]tetraen]-16′-one 14′,14′-dioxide]: where the note is “from C=CCC[C@@H](CC)S(=O)(=O)NC(=O)c1ccc2c(c1)N(C[C@@H]1CC[C@H]1[C@@H](O)CC=C)C[C@@]1(CCCc3cc(Cl)ccc31)CO2, rcm bond, 17-membered ring, Hoveyda-Grubbs II (10 mol%), DCM, 1.4 mM, 45.0 °C, 6.0 h”, the ring closure, isolated yield was found to be 38%. For the same molecule, the 50% inhibitory concentration (IC50) in data set [1] (cell free Mcl-1:Bim TR-FRET, recombinant human Mcl-1 (171-327)) was 4 nM.

Take “(1S,3′R,6′R,7′S,8′E,12′R)-12′-((2S)-2-((tert-butyl(diphenyl)silyl)oxy)propyl)-6-chloro-7′-hydroxy-3,4-dihydro-2h,15′h-spiro[naphthalene-1,22′-[20]oxa[13]thia[1,14]diazatetracyclo[14.7.2.0^3,6.0^19,24]pentacosa[8,16,18,24]tetraen]-15′-one 13′,13′-dioxide or (1S,3′R,6′R,7′S,8′E,12′S)-12′-((2S)-2-((tert-butyl(diphenyl)silyl)oxy)propyl)-6-chloro-7′-hydroxy-3,4-dihydro-2h,15′h-spiro[naphthalene-1,22′-[20]oxa[13]thia[1,14]diazatetracyclo[14.7.2.0^3,6.0^19,24]pentacosa[8,16,18,24]tetraen]-15′-one 13′,13′-dioxide”: the ring closure, isolated yield (rcm bond, 16-membered ring, Hoveyda-Grubbs II, DCM, 2.7 mM, 45.0 °C) is 32%. The molecule “(1S,3′R,6′R,7′S,8′E,12′R)-12′-((2S)-2-((tert-butyl(diphenyl)silyl)oxy)propyl)-6-chloro-7′-hydroxy-3,4-dihydro-2h,15′h-spiro[naphthalene-1,22′-[20]oxa[13]thia[1,14]diazatetracyclo[14.7.2.0^3,6.0^19,24]pentacosa[8,16,18,24]tetraen]-15′-one 13′,13′-dioxide] or (1S,3′R,6′R,7′S,8′E,12′S)-12′-((2S)-2-((tert-butyl(diphenyl)silyl)oxy)propyl)-6-chloro-7′-hydroxy-3,4-dihydro-2h,15′h-spiro[naphthalene-1,22′-[20]oxa[13]thia[1,14]diazatetracyclo[14.7.2.0^3,6.0^19,24]pentacosa[8,16,18,24]tetraen]-15′-one 13′,13′-dioxide” showed a ring closure, isolated yield (rcm bond, 16-membered ring, Hoveyda-Grubbs II (20 mol%), DCM, 1.5 mM, 45.0 °C) of 27%. For the setting “rcm bond, 16-membered ring, Hoveyda-Grubbs II, DCM, 1.5 mM, 45.0 °C”, “(1S,3′R,6′R,7′S,8′E,12′S)-12′-((2R)-2-((tert-butyl(diphenyl)silyl)oxy)propyl)-6-chloro-7′-hydroxy-3,4-dihydro-2H,15′H-spiro[naphthalene-1,22′-[20]oxa[13]thia[1,14]diazatetracyclo[14.7.2.0^3,6.0^19,24]pentacosa[8,16,18,24]tetraen]-15′-one 13′,13′-dioxide or (1S,3′R,6′R,7′S,8′E,12′R)-12′-((2R)-2-((tert-butyl(diphenyl)silyl)oxy)propyl)-6-chloro-7′-hydroxy-3,4-dihydro-2H,15′H-spiro[naphthalene-1,22′-[20]oxa[13]thia[1,14]diazatetracyclo[14.7.2.0^3,6.0^19,24]pentacosa[8,16,18,24]tetraen]-15′-one 13′,13′-dioxide” came in with a ring closure, isolated yield of 20%. “(1S,3′R,6′R,7′S,8′Z,12′S)-12′-((2R)-2-((tert-butyl(diphenyl)silyl)oxy)propyl)-6-chloro-7′-hydroxy-3,4-dihydro-2H,15′H-spiro[naphthalene-1,22′-[20]oxa[13]thia[1,14]diazatetracyclo[14.7.2.0^3,6.0^19,24]pentacosa[8,16,18,24]tetraen]-15′-one 13′,13′-dioxide or (1S,3′R,6′R,7′S,8′Z,12′R)-12′-((2R)-2-((tert-butyl(diphenyl)silyl)oxy)propyl)-6-chloro-7′-hydroxy-3,4-dihydro-2H,15′H-spiro[naphthalene-1,22′-[20]oxa[13]thia[1,14]diazatetracyclo[14.7.2.0^3,6.0^19,24]pentacosa[8,16,18,24]tetraen]-15′-one 13′,13′-dioxide” showed a ring closure, isolated yield (rcm bond, 16-membered ring, Hoveyda-Grubbs II (10 mol%), DCM, 1.5 mM, 45.0 °C) of 30%. The molecule “(1S,3′R,6′R,7′S,9′Z,12′S)-6-chloro-7′-hydroxy-12′-(trifluoromethyl)-3,4-dihydro-2H,15′H-spiro[naphthalene-1,22′-[20]oxa[13]thia[1,14]diazatetracyclo[14.7.2.0^3,6.0^19,24]pentacosa [9,16,18,24]tetraen]-15′-one 13′,13′-dioxide and [...] (1S,3′R,6′R,7′S,9′E,12′S)-6-chloro-7′-hydroxy-12′-(trifluoromethyl)-3,4-dihydro-2H,15′H-spiro[naphthalene-1,22′-[20]oxa[13]thia[1,14]diazatetracyclo[14.7.2.0^3,6.0^19,24]pentacosa [9,16,18,24]tetraen]-15′-one 13′,13′-dioxide and (1S,3′R,6′R,7′S,9′E,12′R)-6-chloro-7′-hydroxy-12′-(trifluoromethyl)-3,4-dihydro-2H,15′H-spiro[naphthalene-1,22′-[20]oxa[13]thia[1,14]diazatetracyclo[14.7.2.0^3,6.0^19,24]pentacosa [9,16,18,24]tetraen]-15′-one 13′,13′-dioxide” returned a ring closure, isolated yield (rcm bond, 16-membered ring, Hoveyda-Grubbs II, toluene, 2.4 mM, 101.0 °C) of 63%. For the molecule “[(1S,3′R,6′R,7′S,8′Z,12′R)-12′-((2R)-2-((tert-butyl(diphenyl)silyl)oxy)propyl)-6-chloro-7′-hydroxy-3,4-dihydro-2h,15′h-spiro[naphthalene-1,22′-[20]oxa[13]thia[1,14]diazatetracyclo[14.7.2.0^3,6.0^19,24]pentacosa[8,16,18,24]tetraen]-15′-one 13′,13′-dioxide and (1S,3′R,6′R,7′S,8′E,12′R)-12′-((2R)-2-((tert-butyl(diphenyl)silyl)oxy)propyl)-6-chloro-7′-hydroxy-3,4-dihydro-2h,15′h-spiro[naphthalene-1,22′-[20]oxa[13]thia[1,14]diazatetracyclo[14.7.2.0^3,6.0^19,24]pentacosa[8,16,18,24]tetraen]-15′-one 13′,13′-dioxide] or [(1S,3′R,6′R,7′S,8′Z,12′S)-12′-((2R)-2-((tert-butyl(diphenyl)silyl)oxy)propyl)-6-chloro-7′-hydroxy-3,4-dihydro-2h,15′h-spiro[naphthalene-1,22′-[20]oxa[13]thia[1,14]diazatetracyclo[14.7.2.0^3,6.0^19,24]pentacosa[8,16,18,24]tetraen]-15′-one 13′,13′-dioxide and (1S,3′R,6′R,7′S,8′E,12′S)-12′-((2R)-2-((tert-butyl(diphenyl)silyl)oxy)propyl)-6-chloro-7′-hydroxy-3,4-dihydro-2h,15′h-spiro[naphthalene-1,22′-[20]oxa[13]thia[1,14]diazatetracyclo[14.7.2.0^3,6.0^19,24]pentacosa[8,16,18,24]tetraen]-15′-one 13′,13′-dioxide]”, the ring closure, isolated yield stood at 38% (rcm bond, 16-membered ring, Hoveyda-Grubbs II, DCM, 1.4 mM, 45.0 °C) and 52% (rcm bond, 16-membered ring, Hoveyda-Grubbs II, DCM, 1.51 mM, 45.0 °C).
